Laboratory results reported in ChEMBL document CHEMBL4152285, “Structure-based design and profiling of novel 17β-HSD14 inhibitors” (Eur J Med Chem, 2018).
Values after ≈ are worked out from the molar mass of the structure shown. Active and inactive are the calls of the source. No cut-off for these calls is given here.

Legend:
[1] = molecular target: T1, 17-beta-hydroxysteroid dehydrogenase type 1 (Homo sapiens) (UniProt P14061); test: Inhibition of human placental cytosolic 17beta-HSD1 using [2,4,6,7-3H]-labeled E1/E1 as substrate and NADH at 1 uM after 10 mins by HPLC based radioflow detection method
T1 sequence (whole entry): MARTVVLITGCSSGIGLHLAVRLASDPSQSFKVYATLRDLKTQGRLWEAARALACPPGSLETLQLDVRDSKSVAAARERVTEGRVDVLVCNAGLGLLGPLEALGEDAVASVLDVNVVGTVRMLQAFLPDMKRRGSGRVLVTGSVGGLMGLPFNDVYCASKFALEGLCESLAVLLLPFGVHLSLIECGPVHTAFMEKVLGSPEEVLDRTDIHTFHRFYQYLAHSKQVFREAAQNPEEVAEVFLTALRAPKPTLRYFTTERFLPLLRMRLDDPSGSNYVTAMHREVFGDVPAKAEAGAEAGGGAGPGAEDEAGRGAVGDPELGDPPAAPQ

[2] = Solubility of the compound in PBS at 200 uM at pH 7.4 measured after 24 hrs; assay type: physicochemical
[3] = molecular target: T2, 3-hydroxyacyl-CoA dehydrogenase type-2 (Homo sapiens) (UniProt Q99714); test: Inhibition of human full length N-terminal GST-tagged 17beta-HSD10 expressed in Escherichia coli BL21 DE3 Codon plus using [6,7-3H]-labeled E2/E2 as substrate and NADH at 1 uM after 30 mins by HPLC based radioflow detection method
T2 sequence (whole entry): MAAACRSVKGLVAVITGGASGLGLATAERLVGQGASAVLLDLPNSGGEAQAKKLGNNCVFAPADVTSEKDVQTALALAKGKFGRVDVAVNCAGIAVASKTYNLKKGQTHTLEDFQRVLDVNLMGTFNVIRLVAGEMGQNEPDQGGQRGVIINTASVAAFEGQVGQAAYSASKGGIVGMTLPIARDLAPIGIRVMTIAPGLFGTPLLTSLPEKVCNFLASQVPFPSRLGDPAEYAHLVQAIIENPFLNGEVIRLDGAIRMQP

[4] = molecular target: T3, 17-beta-hydroxysteroid dehydrogenase 14 (Homo sapiens, UniProt Q9BPX1); test: Binding affinity to recombinant 17beta-HSD14 (unknown origin) expressed in Escherichia coli BL21 pLysS strain using E2 as substrate in presence of NAD measured continuously for 15 mins by fluorimetric method
T3 sequence (Q9BPX1 whole entry): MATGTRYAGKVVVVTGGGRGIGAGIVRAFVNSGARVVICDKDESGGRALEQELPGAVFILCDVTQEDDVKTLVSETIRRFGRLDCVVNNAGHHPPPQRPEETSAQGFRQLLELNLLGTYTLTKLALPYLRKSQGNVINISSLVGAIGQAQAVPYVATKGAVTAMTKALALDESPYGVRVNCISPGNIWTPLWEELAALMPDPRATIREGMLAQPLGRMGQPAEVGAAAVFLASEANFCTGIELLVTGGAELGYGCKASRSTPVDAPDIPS

[5] = molecular target: T4, 17-beta-hydroxysteroid dehydrogenase type 2 (Homo sapiens) (UniProt P37059); test: Inhibition of human placental cytosolic 17beta-HSD2 using [2,4,6,7-3H]-labeled E2/E2 as substrate and NADH at 1 uM after 10 mins by HPLC based radioflow detection method
T4 sequence (whole entry): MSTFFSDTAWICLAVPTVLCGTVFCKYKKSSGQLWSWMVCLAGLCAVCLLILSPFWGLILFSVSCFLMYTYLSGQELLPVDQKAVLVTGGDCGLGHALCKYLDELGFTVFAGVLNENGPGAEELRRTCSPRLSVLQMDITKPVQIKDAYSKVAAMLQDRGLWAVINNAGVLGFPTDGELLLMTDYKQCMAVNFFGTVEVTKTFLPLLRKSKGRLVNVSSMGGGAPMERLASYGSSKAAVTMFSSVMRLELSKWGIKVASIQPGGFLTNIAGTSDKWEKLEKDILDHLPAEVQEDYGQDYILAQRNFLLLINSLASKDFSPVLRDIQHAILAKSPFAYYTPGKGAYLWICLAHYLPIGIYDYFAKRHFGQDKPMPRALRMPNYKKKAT

[6] = Cytotoxicity against HEK293 cells assessed as cell survival at 20 uM after 72 hrs by MTT assay relative to control; assay type: cell-based; settings: human, read-out: Survival
[7] = molecular target: T5, 17-beta-hydroxysteroid dehydrogenase 14 (Homo sapiens) (UniProt Q9BPX1); test: Inhibition of recombinant 17beta-HSD14 (unknown origin) expressed in Escherichia coli BL21 pLysS strain at 2 uM using E2 as substrate in presence of NAD measured continuously for 15 mins by fluorimetric method
T5 sequence (whole entry): T3 sequence (Q9BPX1 whole entry)

Estrogen receptor = molecular target: T6, Estrogen receptor (Homo sapiens, UniProt P03372); test: Agonist activity at ERalpha (unknown origin) expressed in human U2OS cells after 24 hrs by luciferase reporter gene assay; assay type: cell-based
T6 sequence (P03372 whole entry): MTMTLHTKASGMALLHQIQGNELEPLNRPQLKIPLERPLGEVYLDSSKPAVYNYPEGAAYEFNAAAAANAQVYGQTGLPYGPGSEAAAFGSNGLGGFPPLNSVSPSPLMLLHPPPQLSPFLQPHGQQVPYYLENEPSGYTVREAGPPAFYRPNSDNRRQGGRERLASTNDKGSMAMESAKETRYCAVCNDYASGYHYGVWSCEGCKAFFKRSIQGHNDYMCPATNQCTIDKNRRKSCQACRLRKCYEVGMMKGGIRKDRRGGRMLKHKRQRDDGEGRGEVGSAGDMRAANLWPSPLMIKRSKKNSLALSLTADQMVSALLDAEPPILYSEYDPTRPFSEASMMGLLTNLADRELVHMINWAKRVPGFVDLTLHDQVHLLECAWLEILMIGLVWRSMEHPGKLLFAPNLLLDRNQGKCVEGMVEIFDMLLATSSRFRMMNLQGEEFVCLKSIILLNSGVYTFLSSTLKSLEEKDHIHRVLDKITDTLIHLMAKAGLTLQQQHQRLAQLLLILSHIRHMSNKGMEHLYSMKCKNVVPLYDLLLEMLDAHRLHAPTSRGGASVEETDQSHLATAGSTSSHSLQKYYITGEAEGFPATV

[8] = Cytotoxicity against HEK293 cells assessed as decrease in cell viability after 72 hrs by MTT assay; assay type: cell-based; settings: human, read-out: IG50
[9] = molecular target: T5, 17-beta-hydroxysteroid dehydrogenase 14 (Homo sapiens); test: Inhibition of recombinant 17beta-HSD14 (unknown origin) expressed in Escherichia coli BL21 pLysS strain at 100 uM using E2 as substrate in presence of NAD measured continuously for 15 mins by fluorimetric method
[10] = molecular target: T7, ERalpha (estrogen receptor) (Homo sapiens, UniProt P03372); test: Agonist activity at ERalpha (unknown origin) expressed in human U2OS cells after 24 hrs by luciferase reporter gene assay relative to E2; assay type: cell-based; settings: U2OS cells expressing ERalpha, read-out: Activity
T7 sequence (P03372 whole entry): T6 sequence (P03372 whole entry)

Row | Structure (SMILES) | inhibition [1] | solubility at 24 h, 200 µM [2] | inhibition [3] | Ki [4] | inhibition [5] | viability at 72 h, 20 µM [6] | inhibition [7] | Activity (Estrogen receptor) | GI50 at 72 h [8] | inhibition [9] | Emax at 24 h [10]
1 | Oc1cc(Oc2cccc(-c3cccc(O)c3F)n2)ccc1F | 69% | > 200 µM | 17% | 58 nM | 100% | – | – | – | – | – | –
2 | Cc1ccc2nc(C(=O)c3ccc(F)c(O)c3)ccc2c1 | 12% | 25 to 50 µM (≈ 7.03 to 14.1 µg/mL) | inactive | 6 nM | 78% | 80% | – | – | – | – | –
3 | O=C(Nc1ccc(F)c(O)c1)c1cccc(-c2cccc(O)c2F)n1 | – | – | – | 336 nM | – | – | – | – | – | – | –
4 | O=C(c1ccc(F)c(O)c1)c1ccc2ccccc2n1 | 6% | > 200 µM | inactive | 12 nM | 76% | – | 69% | – | – | – | –
5 | O=C(c1ccc(F)c(O)c1)c1ccc2ccccc2c1 | 64% | 25 to 50 µM (≈ 6.66 to 13.3 µg/mL) | inactive | 6 nM | 96% | – | – | – | – | – | –
6 | Nc1ccc2ccc(C(=O)c3ccc(F)c(O)c3)nc2c1 | 21% | > 200 µM | inactive | 34 nM | 83% | – | – | – | – | – | –
7 | N#Cc1ccc2ccc(C(=O)c3ccc(F)c(O)c3)nc2c1 | inactive | 25 to 50 µM (≈ 7.31 to 14.6 µg/mL) | inactive | 9 nM | 56% | 80% | – | Not Active | – | – | –
8 | O=C(c1ccc(F)c(O)c1)c1ccc2cc(O)ccc2n1 | 20% | > 200 µM | inactive | 119 nM | 71% | 80% | – | – | > 100000 nM | – | –
9 | CN(c1ccc(F)c(O)c1)c1cccc(-c2cccc(O)c2F)n1 | 99% | > 200 µM | 19% | 42 nM | 100% | – | – | – | – | – | –
10 | O=C(Nc1cccc(-c2cccc(O)c2F)n1)c1ccc(F)c(O)c1 | – | – | – | 686 nM | – | – | – | – | – | – | –
11 | O=C(c1ccc(F)c(O)c1)c1ccc2ccc(-c3nnn[nH]3)cc2n1 | inactive | 50 to 100 µM (≈ 16.8 to 33.5 µg/mL) | inactive | 10 nM | 52% | 80% | – | Not Active | > 100000 nM | – | –
12 | CN(C(=O)c1ccc(F)c(O)c1)c1cccc(-c2cccc(O)c2F)n1 | – | – | – | 2030 nM | – | – | – | – | – | – | –
13 | COc1cc(C(=O)c2ccc3ccccc3n2)ccc1F | – | 100 to 200 µM (≈ 28.1 to 56.3 µg/mL) | – | – | – | – | – | – | – | 21% | –
14 | Oc1cc(Nc2cccc(-c3cccc(O)c3F)n2)ccc1F | 57% | > 200 µM | inactive | 47 nM | 82% | – | – | – | – | – | –
15 | Cc1cc(-c2ccc3ccc(C(=O)c4ccc(F)c(O)c4)nc3c2)ccc1O | 11% | 13 to 25 µM (≈ 4.85 to 9.33 µg/mL) | inactive | 6 nM | 80% | – | – | – | – | – | –
16 | C=C(c1ccc(F)c(O)c1)c1cccc(-c2cccc(O)c2F)n1 | 88% | > 200 µM | inactive | 1.5 nM | 100% | 80% | – | – | > 100000 nM | – | –
17 | O=C(c1ccc(F)c(O)c1)c1cccc(-c2cccc(O)c2F)n1 | 8% | > 200 µM | inactive | – | 56% | 80% | – | – | > 100000 nM | – | 13%
